Assay results from patent US20030068615A1, “Polypeptides that bind HIV gp120 and related nucleic acids, antibodies, compositions, and methods of use” (priority 1999, published 2003).
Where “and” joins values, the source holds several entries; their conditions need not be identical. Identical values can stand only once. Like-named read-outs stand apart in the source and are kept apart here.

Target: HIV-1LAI envelope gp120 (Human immunodeficiency virus type 1 group M subtype B, UniProt P03377)
Assay type: binding
Details: for Binding Results For Window Length (counts bound-background), 9: 9-mer starting at the first residue of the printed sequence; for Relative % of Control: mean of two syntheses and binding experiments ± average deviation, wild-type = 100%; for number of radioactive decays (counts) counted: human CD4 21-mer scan, empty control 2075; for Binding Results For Window Length (counts bound-background), 12: 12-mer starting at the first residue of the printed sequence; for Binding Results For Window Length (counts bound-background), 15: 15-mer starting at the first residue of the printed sequence; for Counts per 20′ Average-background: CCR5 18-mer scan
[1] = CXCR4 18-mer scan, background subtracted, empty control 0
[2] = CXCR4 18-mer scan, empty control 412
[3] = STRL33 18-mer scan, background subtracted, first of two count columns
[4] = STRL33 18-mer scan, background subtracted, second of two count columns
[5] = STRL33 amino terminus, background subtracted
[6] = Panel C, 15-mers and 18-mers of CD4, empty control 556
[7] = Panel D, 9-mers and 12-mers of CD4, empty control […]
[8] = Panel E, 9-mers and 12-mers of CD4, empty control 571
[9] = Panel B, 15-mers and 18-mers of CD4, empty control 575
[10] = Panel A, 21-mers of CD4, empty control 515 and 617
[11] = radiolabeled HIV-1LAI gp120, background subtracted

NANFNKIFLPTIYSIIFL [CXCR4 segment 33-50]
radioactive counts recorded in twenty minutes [1]: 173 counts | radioactive counts recorded in twenty minutes [2]: 585 counts

HWEYYAMTSFHYTIMVTE [STRL33 segment 257-274]
radioactive counts recorded in twenty minutes [3]: 2040.5 counts | radioactive counts recorded in twenty minutes [4]: 3065.5 counts

EHQAFLQFS
Binding Results For Window Length (counts bound-background), 9 [5]: 7505 counts

SVADLLFVITLPFWAVDA [CXCR4 segment 81-98]
radioactive counts recorded in twenty minutes [1]: 253 counts | radioactive counts recorded in twenty minutes [2]: 665 counts

DIVVLAFQKASSIVY
COUNTS of radiolabeled gp120 retained [6]: 776 counts

LKIEDSDTYICE
COUNTS of radiolabeled gp120 retained [7]: 635 counts

LAFTVEKLTGSGELWWQA
COUNTS of radiolabeled gp120 retained [6]: 866 counts

EQVEFSFPLAFTVEKLTG
COUNTS of radiolabeled gp120 retained [6]: 798 counts

EEVQLLVFALTANSD
COUNTS of radiolabeled gp120 retained (Panel F, sequential alanine replacements of CD4 polypeptides, duplicate series, empty control 569): 19348 counts and 18254 counts

KEEVQLLVFGLT
COUNTS of radiolabeled gp120 retained [7]: 1774 counts

EGEQVEFSF
COUNTS of radiolabeled gp120 retained [8]: 735 counts

YDSMKEPCFREENANFNK [CXCR4 segment 21-38]
radioactive counts recorded in twenty minutes [1]: 53 counts | radioactive counts recorded in twenty minutes [2]: 465 counts

EQVEFSFPLAFT
COUNTS of radiolabeled gp120 retained [8]: 1556 counts

EFSFPLAFTVEKLTGSGE
COUNTS of radiolabeled gp120 retained [6]: 668 counts

QKASSIVYK
COUNTS of radiolabeled gp120 retained [8]: 494 counts

NSDTHLLQGQSLTLTLES
COUNTS of radiolabeled gp120 retained [9]: 1726 counts

LVSLPQIIYGNVFNLDKL
radioactive counts recorded in twenty minutes [3]: 91.5 counts | radioactive counts recorded in twenty minutes [4]: −15.5 counts

MEGISIYTSDNYTEEMGS
radioactive counts recorded in twenty minutes [1]: 2591 counts | radioactive counts recorded in twenty minutes [2]: 3003 counts | Relative % of Control (CXCR4 (1-18) alanine variants): 100%

RCRHRRRQAERMSQIKRLLSE [human CD4 421-441]
number of radioactive decays (counts) counted: 2075 counts

EVNLVVMRATQLQKNLTCEVW [human CD4 311-331]
number of radioactive decays (counts) counted: 2183 counts

DSSQEEHQAFLQFSK
Binding Results For Window Length (counts bound-background), 9 [5]: 147 counts | Binding Results For Window Length (counts bound-background), 12 [5]: 882 counts | Binding Results For Window Length (counts bound-background), 15 [5]: 4588 counts

FLPCMYLVVFVCGLVGNS [STRL33 segment 33-50]
radioactive counts recorded in twenty minutes [3]: 605.5 counts | radioactive counts recorded in twenty minutes [4]: 372.5 counts

KVEFKIDIVVLAFQKASSIVY
COUNTS of radiolabeled gp120 retained [10]: 635 counts

KATKAYNQQAKRMTWGKV
radioactive counts recorded in twenty minutes [3]: 701.5 counts | radioactive counts recorded in twenty minutes [4]: 568.5 counts

IFFCVRCRHRRRQAERMSQIK
number of radioactive decays (counts) counted: 2085 counts

DQGNFPLIIKNLKIE
COUNTS of radiolabeled gp120 retained [9]: 635 counts

LPLADLVFVCTLPFWAYA [STRL33 segment 73-90]
radioactive counts recorded in twenty minutes [3]: 557.5 counts | radioactive counts recorded in twenty minutes [4]: 960.5 counts

DQKEEVQLLVFGLTA
COUNTS of radiolabeled gp120 retained [9]: 3905 counts

TLLHAGGFQKHRSLKIIF
radioactive counts recorded in twenty minutes [3]: 1041.5 counts | radioactive counts recorded in twenty minutes [4]: 999.5 counts

PVLYAFVSLKFRKNFWKL [STRL33 segment 285-302]
radioactive counts recorded in twenty minutes [3]: 1859.5 counts | radioactive counts recorded in twenty minutes [4]: 2147.5 counts

SKGHQKRKALKTTVILIL [CXCR4 segment 229-246]
radioactive counts recorded in twenty minutes [1]: 140 counts | radioactive counts recorded in twenty minutes [2]: 552 counts

TCTVLQNQKKVEFKIDIV
COUNTS of radiolabeled gp120 retained [6]: 571 counts

IVVLAFQKASSIVYKKEGEQV
COUNTS of radiolabeled gp120 retained [10]: 646 counts

VEDQKEEVQ
COUNTS of radiolabeled gp120 retained [7]: 521 counts

KLVKDIGCLPYLGVSHQW [STRL33 segment 301-318]
radioactive counts recorded in twenty minutes [3]: −2.5 counts | radioactive counts recorded in twenty minutes [4]: 27.5 counts

SLKLENKEAKVSKREKAVWVL [human CD4 341-361]
number of radioactive decays (counts) counted: 1663 counts

EFSFPLAFTVEK
COUNTS of radiolabeled gp120 retained [8]: 585 counts

MDYQVSSPIADINYYTSE [CCR5 (1-18) variant Y10A]
Relative % of Control (CCR5 (1-18) alanine variants): 19 ± 6% | percentage of binding of mutant polypeptide compared to wild-type polypeptide, gp120 (CCR5 alanine mutant peptide, radiolabeled HIV-1LAI gp120): 19.2%

DDRYICDRFYPNDLWVVV
radioactive counts recorded in twenty minutes [1]: 125 counts | radioactive counts recorded in twenty minutes [2]: 537 counts

PLIIKLNKIEDSDTYICEVED
COUNTS of radiolabeled gp120 retained [10]: 20145 counts

FNDSSQEEEQAFLQFSKV
Binding Results For Window Length (counts bound-background), 9 [5]: 246 counts | Binding Results For Window Length (counts bound-background), 12 [5]: 470 counts | Binding Results For Window Length (counts bound-background), 15 [5]: 4089 counts | Binding Results For Window Length (counts bound-background), 18 (STRL33 amino terminus, 18-mer starting at the first residue of the printed sequence, background subtracted): 4678 counts

MPFNLMKFIRSTHWEYYA [STRL33 segment 245-262]
radioactive counts recorded in twenty minutes [3]: 2171.5 counts | radioactive counts recorded in twenty minutes [4]: 2182.5 counts

QVEFSFPLAFTVEKLTGSGEL
COUNTS of radiolabeled gp120 retained [10]: 741 counts

LGAKFKTSAQHALTSVSR
radioactive counts recorded in twenty minutes [1]: 200 counts | radioactive counts recorded in twenty minutes [2]: 612 counts

LIIKNLKIE
COUNTS of radiolabeled gp120 retained [7]: 515 counts

SDNYTEEMGSGDYDSMKE [CXCR4 segment 9-26]
radioactive counts recorded in twenty minutes [1]: 43 counts | radioactive counts recorded in twenty minutes [2]: 455 counts

PLIIKNLKIEDS
COUNTS of radiolabeled gp120 retained [7]: 565 counts

TGSGELWWQ
COUNTS of radiolabeled gp120 retained [8]: 507 counts

NRLDQAMQVTETLGMTHC [CCR5 segment 273-]
Counts per 20′ Average-background [11]: 10 counts per 20′

LLRCRNEKKRHRAVRLIF
Counts per 20′ Average-background [11]: 102 counts per 20′

IFTIMIVYFLFWAPYNIV [CCR5 segment 237-]
Counts per 20′ Average-background [11]: 121 counts per 20′

SEDNSKTFSASHNVEATS [STRL33 segment 321-338]
radioactive counts recorded in twenty minutes [3]: 524.5 counts

HCCINPIIYAFVGEKFRN [CCR5 segment 289-]
Counts per 20′ Average-background [11]: 200 counts per 20′

YKKEGEQVEFSFPLA
COUNTS of radiolabeled gp120 retained [6]: 687 counts

YSIIFLTGIVGNGLVILV [CXCR4 segment 45-62]
radioactive counts recorded in twenty minutes [1]: 123 counts | radioactive counts recorded in twenty minutes [2]: 535 counts

YKKEGEQVEFSF
COUNTS of radiolabeled gp120 retained [8]: 548 counts

LVFGLTANSDTHLLQGQS
COUNTS of radiolabeled gp120 retained [9]: 564 counts

IDIVVLAFQKASSIVYKK
COUNTS of radiolabeled gp120 retained [6]: 711 counts

KAVWVLNPEAGMWQCLLSDSG [human CD4 356-376]
number of radioactive decays (counts) counted: 3133 counts

KIEDSDTYICEV
COUNTS of radiolabeled gp120 retained [7]: 601 counts

IIKQGCEFENTVEKWISI [CXCR4 segment 269-286]
radioactive counts recorded in twenty minutes [1]: 106 counts | radioactive counts recorded in twenty minutes [2]: 518 counts

FQKASSIVYKKEGEQ
COUNTS of radiolabeled gp120 retained [6]: 637 counts

KNLKIEDSDTYICEV
COUNTS of radiolabeled gp120 retained [9]: 562 counts

FQKASSIVY
COUNTS of radiolabeled gp120 retained [8]: 568 counts

KKEGEQVEF
COUNTS of radiolabeled gp120 retained [8]: 546 counts

LLVFGLTANSDT
COUNTS of radiolabeled gp120 retained [7]: 533 counts

NFPLIIKNLKIEDSD
COUNTS of radiolabeled gp120 retained [9]: 654 counts

KEPCFREENANFNKIFLP [CXCR4 segment 25-42]
radioactive counts recorded in twenty minutes [1]: 252 counts | radioactive counts recorded in twenty minutes [2]: 664 counts

QAFLQFSKV
Binding Results For Window Length (counts bound-background), 9 [5]: 2600 counts

VFVCGLVGNSLVLVISIF [STRL33 segment 41-58]
radioactive counts recorded in twenty minutes [3]: 570.5 counts | radioactive counts recorded in twenty minutes [4]: 284.5 counts
